The text below walks through data of US9549912B2, “Methods for treating atrial fibrillation” (Armetheon, Inc., priority 2009, dated 2017).

One data set addresses P-glycoprotein (P-gp) (Homo sapiens, UniProt P08183). To be noted: cited from earlier work.
Data set [1] in a line: Electrophysiological activity in animals: atrial refractoriness, metabolite activity. Format: in vivo. The following applies: in vivo.
The conditions of data set [2]: cited from earlier work.
The nature of data set [3]: Phase 2 clinical trial of tecarfarin: time in therapeutic INR range versus warfarin. To be noted: for proportion of time with INR below 1.5 / proportion of time with INR between 1.5 and 1.9: human, in vivo; for time in therapeutic range (TTR), INR between 2.0 and 3.0: same patient population, previously on warfarin. It counts as in vivo, human.
For another data set, the system named is patients with AF. To be noted: cited from earlier work.
A further data set has as its system AF patients. The following applies: followed for a year, versus placebo; cited from earlier work.
The conditions of data set [4]: 2 years; 8 for the placebo; cited from earlier work.

Where two headings read alike, the source gives them in different places.

Chain of P-glycoprotein (P-gp) (P08183 whole entry): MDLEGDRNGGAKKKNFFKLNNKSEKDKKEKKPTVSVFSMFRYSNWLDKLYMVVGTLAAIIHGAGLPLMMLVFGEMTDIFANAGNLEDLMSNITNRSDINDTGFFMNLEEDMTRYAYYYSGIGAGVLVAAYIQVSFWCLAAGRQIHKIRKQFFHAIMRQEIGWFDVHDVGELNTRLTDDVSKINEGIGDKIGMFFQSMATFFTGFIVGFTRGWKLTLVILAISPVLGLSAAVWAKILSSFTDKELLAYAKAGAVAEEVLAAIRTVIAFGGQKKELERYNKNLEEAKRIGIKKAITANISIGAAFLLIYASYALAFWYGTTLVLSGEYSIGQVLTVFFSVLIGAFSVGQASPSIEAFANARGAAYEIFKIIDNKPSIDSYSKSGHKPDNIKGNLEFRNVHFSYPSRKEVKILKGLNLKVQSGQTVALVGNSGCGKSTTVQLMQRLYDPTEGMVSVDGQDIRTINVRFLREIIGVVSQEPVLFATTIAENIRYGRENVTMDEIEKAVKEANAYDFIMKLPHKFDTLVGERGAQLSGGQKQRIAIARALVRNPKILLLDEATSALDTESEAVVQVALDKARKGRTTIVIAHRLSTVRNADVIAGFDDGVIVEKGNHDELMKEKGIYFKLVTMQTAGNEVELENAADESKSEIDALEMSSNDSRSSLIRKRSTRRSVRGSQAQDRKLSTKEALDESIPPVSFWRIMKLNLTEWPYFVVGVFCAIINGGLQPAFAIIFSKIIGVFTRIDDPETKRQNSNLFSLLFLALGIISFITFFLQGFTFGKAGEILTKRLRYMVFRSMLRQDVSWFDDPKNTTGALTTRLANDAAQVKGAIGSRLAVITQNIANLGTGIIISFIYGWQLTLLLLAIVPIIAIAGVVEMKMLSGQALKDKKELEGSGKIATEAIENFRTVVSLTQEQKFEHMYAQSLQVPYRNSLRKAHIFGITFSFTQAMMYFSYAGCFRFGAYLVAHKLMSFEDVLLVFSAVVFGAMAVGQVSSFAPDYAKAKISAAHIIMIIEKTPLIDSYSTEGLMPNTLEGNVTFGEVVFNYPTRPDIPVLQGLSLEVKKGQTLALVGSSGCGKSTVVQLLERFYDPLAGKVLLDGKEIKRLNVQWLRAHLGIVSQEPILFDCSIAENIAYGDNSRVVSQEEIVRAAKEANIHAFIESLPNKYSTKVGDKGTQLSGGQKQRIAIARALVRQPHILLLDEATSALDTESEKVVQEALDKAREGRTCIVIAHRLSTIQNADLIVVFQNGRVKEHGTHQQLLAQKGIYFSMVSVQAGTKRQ

Turning to `C=C[C@H]1C[N@@]2CC[C@H]1C[C@@H]2[C@@H](O)c1ccnc2ccc(OC)cc12` [quinidine], on P-glycoprotein (P-gp), the P-gp inhibition entry is “particularly potent P-gp inhibitor”.
Take `CCN(CC)CCOc1c(I)cc(C(=O)c2c(CC(=O)O)oc3ccccc23)cc1I` [ATI-2000]: the electrophysiological activity result in data set [1] is “electrophysiologically inactive”.
`[H]/N=C(/N)c1ccc(NCc2nc3cc(C(=O)N(CCC(=O)O)c4ccccn4)ccc3n2C)cc1` [dabigatran]: the “major bleeding versus warfarin” value in data set [2] (110 mg) is recorded as “superior”; in data set [2] (150 mg), “noninferior”. The P-gp substrate status result on P-glycoprotein (P-gp) is listed as “substrate”.
In the case of `CC(=O)CC(c1ccccc1)c1c(O)c2ccccc2oc1=O` (centres unmarked) [warfarin], in data set [3], the “proportion of time with INR below 1.5” value came to 3.9%; the “proportion of time with INR between 1.5 and 1.9” value was found to be 22.4%; the “time in therapeutic range (TTR), INR between 2.0 and 3.0” value amounted to 59.3%. Besides, in the data set on patients with AF, the strokes prevented is given as 64%.
In the case of `CCCCc1oc2ccc(NS(C)(=O)=O)cc2c1C(=O)c1ccc(OCCCN(CCCC)CCCC)cc1` [dronedarone], in the data set on AF patients, the “time to first recurrence of AF (TTFR)” value is reported as “significant increase in TTFR compared to placebo”. Also, the “number of strokes in patients with only AF or atrial flutter on all ECGs” value in data set [4] is recorded as 2.
As for `CC(OC(=O)c1ccc(Cc2c(O)c3ccccc3oc2=O)cc1)(C(F)(F)F)C(F)(F)F` [tecarfarin], in data set [3], the “proportion of time with INR below 1.5” value was 1.2%; the “proportion of time with INR between 1.5 and 1.9” value was found to be 14.2%; the “time in therapeutic range (TTR), INR between 2.0 and 3.0” value was determined as 71.5%.
